Read-outs that look alike come from different tables or passages of the source.
What was measured:
m-calpain [1] = target: T1, m-calpain (Rattus norvegicus, UniProt Q07009); assay: Confirmation of reversible inhibitory activity (remaining m-calpain activity after incubation with inhibitor); type: biochemical; settings: incubated 0 to 20 minutes at 10° C.; 10 μM-150 μM inhibitor solution (1 μl); FIGS. 1 to 3
T1 construct: m-calpain was purified from rat brain; from tissue; host or cells: rat brain
T1 sequence (Q07009 20-700 limits assumed): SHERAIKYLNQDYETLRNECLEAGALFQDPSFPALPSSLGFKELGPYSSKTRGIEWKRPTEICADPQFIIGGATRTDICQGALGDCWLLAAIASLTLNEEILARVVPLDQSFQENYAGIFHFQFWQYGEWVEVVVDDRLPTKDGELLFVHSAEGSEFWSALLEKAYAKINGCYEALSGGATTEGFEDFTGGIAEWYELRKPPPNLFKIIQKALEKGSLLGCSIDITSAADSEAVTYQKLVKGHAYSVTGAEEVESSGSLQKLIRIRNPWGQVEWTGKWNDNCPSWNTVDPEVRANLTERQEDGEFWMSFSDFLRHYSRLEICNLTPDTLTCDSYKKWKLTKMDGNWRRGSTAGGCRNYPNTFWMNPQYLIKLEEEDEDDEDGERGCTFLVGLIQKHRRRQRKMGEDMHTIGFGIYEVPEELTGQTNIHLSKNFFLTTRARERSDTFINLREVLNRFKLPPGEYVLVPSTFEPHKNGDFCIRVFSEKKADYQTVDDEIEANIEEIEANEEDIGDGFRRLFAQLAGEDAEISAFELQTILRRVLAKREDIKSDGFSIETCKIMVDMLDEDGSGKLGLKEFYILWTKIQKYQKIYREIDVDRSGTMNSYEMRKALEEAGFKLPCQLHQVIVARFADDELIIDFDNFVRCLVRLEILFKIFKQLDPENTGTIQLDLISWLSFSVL
T1 sequence (Q64537 1-270 partner): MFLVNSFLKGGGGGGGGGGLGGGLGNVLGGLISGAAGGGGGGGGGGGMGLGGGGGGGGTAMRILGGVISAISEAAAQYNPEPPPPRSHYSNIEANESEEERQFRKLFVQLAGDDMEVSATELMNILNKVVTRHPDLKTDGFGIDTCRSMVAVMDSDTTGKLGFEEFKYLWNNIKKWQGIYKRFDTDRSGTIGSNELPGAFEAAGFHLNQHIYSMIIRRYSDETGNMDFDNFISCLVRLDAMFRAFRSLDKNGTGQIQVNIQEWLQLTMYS
Experimental: According to the assay for inhibitory activity against calpain in Experiment 1, reversible inhibitory activity of the present compounds was confirmed as follows.
To an imidazole buffer (54 μl ) were added 500 mM CaCl2 solution (1 μl), 5 mM solution of the synthetic substrate described in the literature (4 μl), 10 μM-150 μM inhibitor solution (1 μl) and m-calpain solution (40 μl), and the mixture was incubated for 0 to 20 minutes at a temperature of 10° C. Then, 100 mM EDTA solution (5 μl) was added to inactivate the enzymatic activity. To the mixture was then added imidazole buffer (900 μl) followed by an addition of 5 mM synthetic substrate solution (40 μl) and 500 mM CaCl2 solution (10 μl), and the decomposition rate of the synthetic substrate was measured for 10 minutes at a temperature of 30° C. to determine the remaining activity of the enzyme.
The compounds of Examples 3, 113 and 190 were used as the inhibitor, and E-64 which is an irreversible inhibitor was also used for comparison.

cathepsin L = target: T2, cathepsin L (Rattus norvegicus, UniProt P07154); assay: Thiol protease inhibitory activity, cathepsin L purified from rat kidney; type: biochemical; settings: Table 3
T2 construct: Cathepsin L was purified from rat kidney; from tissue; host or cells: rat kidney
T2 sequence (P07154 114-334): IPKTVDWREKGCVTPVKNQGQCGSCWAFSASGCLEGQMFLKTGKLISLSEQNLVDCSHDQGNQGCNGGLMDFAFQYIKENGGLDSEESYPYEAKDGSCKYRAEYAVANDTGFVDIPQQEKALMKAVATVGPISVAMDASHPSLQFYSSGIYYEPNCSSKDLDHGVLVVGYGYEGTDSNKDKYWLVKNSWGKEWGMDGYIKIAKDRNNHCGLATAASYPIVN
Experimental: (§1) Inhibitory activity against papain (P-3125, Sigma) and cathepsin B (C-6286, Sigma) was assayed according to the method described in a literature [Biochemical Journal, 201, 189 (1982)]. Cathepsin L was purified from rat kidney according to the method in a literature [Journal of Biochemistry, 100, 35 (1986)], and the inhibitory activity against it was assayed in the same manner as described in the above literature for cathepsin B. Furthermore, m-calpain was purified from rat brain according to a known method [Journal of Biological Chemistry, 254, p. 3210 (1984)] and the inhibitory activity against it was assayed by a method described in a literature [Journal of Biological Chemistry, 259, 12489 (1984)]. It is evident from Tables 3 and 4 that the compounds of the present invention have a potent inhibitory activity against thiol proteases such as papain, cathepsin B, cathepsin L or m-calpain.

papain = target: T3, papain (Carica papaya, UniProt P00784); assay: Thiol protease inhibitory activity, papain (P-3125, Sigma); type: biochemical
T3 sequence (P00784 134-345): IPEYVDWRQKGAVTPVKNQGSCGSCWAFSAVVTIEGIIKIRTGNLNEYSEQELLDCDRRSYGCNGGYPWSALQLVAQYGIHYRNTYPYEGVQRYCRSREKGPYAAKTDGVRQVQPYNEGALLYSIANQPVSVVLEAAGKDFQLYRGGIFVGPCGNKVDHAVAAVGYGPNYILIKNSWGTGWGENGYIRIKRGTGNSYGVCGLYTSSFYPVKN
Experimental: as §1

m-calpain [2] = target: T1, m-calpain; assay: Thiol protease inhibitory activity, m-calpain purified from rat brain; type: biochemical; settings: Table 3
How it was run: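 Papain and bovine cathepsin B assayed by a published method; cathepsin L purified from rat kidney and assayed in the same manner as cathepsin B. m-Calpain purified from rat brain and assayed by a separate published procedure.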

cathepsin B = target: T4, cathepsin B (Bos taurus, UniProt P07688); assay: Thiol protease inhibitory activity, cathepsin B (C-6286, Sigma); type: biochemical; settings: Table 3
T4 construct: purchased Sigma C-6286
Experimental: as §1

cataract animal models = settings: Investigative Ophthalmology & Visual Science, 32, p. 533 (1991); cited from earlier work
[3] = test system: rat which has an enhanced bone destruction by administration of parathyroid hormone; settings: cited from earlier work
production of IgE = settings: The Journal of Antibiotics, 42, p. 1362 (1989); cited from earlier work

For `CSCC(=O)[C@H](Cc1ccccc1)NC(=O)[C@H](CC(C)C)NC(=O)OCc1ccccc1` [Example 113, (s)-3-((s)-2-benzyloxycarbonylamino-4-methylvalerylamino)-1-methylthio-4-phenyl-2-butanone], the “remaining enzymatic activity after incubation with inhibitor (reversible inhibition)” value (m-calpain [1]) was “activity nearly equal to that of a control remained”.

In the case of `CCCC[C@H](NC(=O)[C@H](CC(C)C)NC(=O)COc1ccccc1)C(=O)CSCc1ccco1` [3 (No. 82), (s)-1-furfurylthio-3-((s)-4-methyl-2-phenoxyacetylaminovalerylamino)-2-heptanone], the “remaining enzymatic activity after incubation with inhibitor (reversible inhibition)” value (m-calpain [1]) is reported as “activity nearly equal to that of a control remained”, the IC50 (cathepsin L) is reported as 0.016 µM and the IC50 (papain) is reported as 0.26 µM. For the same compound, the IC50 (m-calpain [2]) was 3.3 µM and the IC50 (cathepsin B) was 0.71 µM.

With `CCCC[C@H](NC(=O)[C@H](CC(C)C)NC(=O)Cc1csc2ccccc12)C(=O)CSCc1ccco1` [34 (No. 79), (s)-3-[(s)-2-(3-benzothienylacetylamino)-4-methylvalerylamino]-1-furfurylthio-2-heptanone] the IC50 (cathepsin L) was 0.51 µM, the IC50 (papain; Table 3, read-out: IC50 papain) was 0.36 µM and the IC50 (m-calpain [2]) was 5.5 µM. For the same compound, the IC50 (cathepsin B) was 0.41 µM.

Compound `CCCC[C@H](NC(=O)[C@H](CC(C)C)NC(=O)COc1ccc(F)cc1)C(=O)CSCc1ccco1` [38 (No. 87), (s)-3-[(s)-2-(4-fluorophenoxyacetylamino)-4-methylvalerylamino]-1-furfurylthio-2-heptanone] has an IC50 (cathepsin L) of 0.72 µM, an IC50 (papain; Table 3, read-out: IC50 papain) of 0.42 µM and an IC50 (m-calpain [2]) of 5 µM. It also gave an IC50 (cathepsin B) of 0.62 µM.

Work on `CCCC[C@H](NC(=O)[C@H](CC(C)C)NC(=O)CSc1ccccc1)C(=O)CSCc1ccco1` [49 (No. 107), (s)-1-furfurylthio-3-((s)-4-methyl-2-phenylthioacetylaminovalerylamino)-2-heptanone] yielded an IC50 (cathepsin L) of 0.67 µM, an IC50 (papain) of 0.04 µM and an IC50 (m-calpain [2]) of 11 µM. For the same compound, the IC50 (cathepsin B) was 0.59 µM.

In the case of `CC(C)C[C@H](NC(=O)[C@H]1O[C@@H]1C(=O)O)C(=O)NCCCCNC(=N)N` [E-64], the “remaining enzymatic activity after incubation with inhibitor (reversible inhibition)” value (m-calpain [1]) is given as “enzymatic activity rapidly disappeared in proportion to the incubation period”, the effect on cataract (cataract animal models) is given as “effective on cataract in animal models” and the “calcium concentration and hydroxyproline concentration in blood” value [3] is given as “decrease of calcium concentration and hydroxyproline concentration in blood”.

Work on `CSCC(=O)[C@H](CCc1ccccc1)NC(=O)[C@H](CC(C)C)NC(=O)COc1ccccc1` [203 (No. 536), (s)-3-((s)-4-methyl-2-phenoxyacetylaminovalerylamino)-1-methylthio-5-phenyl-2-pentanone] yielded an IC50 (cathepsin L) of 0.38 µM, an IC50 (papain) of 4.4 µM and an IC50 (m-calpain [2]) of 9.1 µM. It also gave an IC50 (cathepsin B) of 0.34 µM.

Work on `CC(C)C[C@H](NC(=O)c1cc2ccccc2o1)C(=O)N[C@@H](Cc1ccccc1)C(=O)CSCc1ccco1` [174 (No. 382), (s)-3-[(s)-2-(2-benzofuranylcarbonylamino)-4-methylvalerylamino]-1-furfurylthio-4-phenyl-2-butanone] yielded an IC50 (cathepsin L) of 1.6 µM, an IC50 (papain; Table 3, read-out: IC50 papain) of 12 µM and an IC50 (m-calpain [2]) of 16 µM. For the same compound, the IC50 (cathepsin B) was 23 µM.

For `NC(N)=NCCCCNC(=O)[C@H](Cc1ccccc1)NC(=O)[C@H]1O[C@@H]1C(=O)O` [Estatin A], the “production of IgE” value (production of IgE) is given as “specifically inhibit the production of IgE without affecting on the production of IgG” and the “calcium concentration and hydroxyproline concentration in blood” value [3] is given as “decrease of calcium concentration and hydroxyproline concentration in blood”.

In the case of `CC(C)C[C@H](NC(=O)OCc1ccccc1)C(=O)N[C@@H](Cc1ccccc1)C(=O)CN(C)C` [190 (No. 465), (s)-3-((s)-2-benzyloxycarbonylamino-4-methylvalerylamino)-1-dimethylamino-4-phenyl-2-butanone], the “remaining enzymatic activity after incubation with inhibitor (reversible inhibition)” value (m-calpain [1]) is reported as “activity nearly equal to that of a control remained”, the IC50 (cathepsin L) is reported as 2.8 µM and the IC50 (papain; Table 3, read-out: IC50 papain) is reported as 40 µM. It also gave an IC50 (m-calpain [2]) of 7.3 µM and an IC50 (cathepsin B) of 1.6 µM.

For `CCCC[C@H](NC(=O)[C@H](CC(C)C)NC(=O)COc1ccc2ccccc2c1)C(=O)CSCc1ccco1` [53 (No. 115), (s)-1-furfurylthio-3-[(s)-4-methyl-2-(2-naphtoxyacetylamino)valerylamino]-2-heptanone], the IC50 (cathepsin L) was 1.5 µM, the IC50 (papain; Table 3, read-out: IC50 papain) was 9.2 µM and the IC50 (m-calpain [2]) was 6.2 µM. It also gave an IC50 (cathepsin B) of 11 µM.

`CC(C)C[C@H](NC(=O)COc1ccccc1)C(=O)N[C@@H](Cc1ccccc1)C(=O)CSCc1ccco1` [164 (No. 348), (s)-1-furfurylthio-3-((s)-4-methyl-2-phenoxyacetylaminovalerylamino)-4-phenyl-2-butanone] showed an IC50 (cathepsin L) of 3.2 µM, an IC50 (papain) of 35 µM and an IC50 (m-calpain [2]) of 1.7 µM. For the same compound, the IC50 (cathepsin B) was 64 µM.

In the case of `CCC(C)[C@H](NC(=O)OCC1CCCCC1)C(=O)N[C@@H](Cc1ccccc1)C(=O)CSCc1ccco1` (stereo partly shown) [135 (No. 288), (s)-3-((s)-2-cyclohexylmethoxycarbonylamino-3-methylvalerylamino)-1-furfurylthio-4-phenyl-2-butanone], the IC50 (cathepsin L) is reported as 0.054 µM, the IC50 (papain; Table 3, read-out: IC50 papain) is reported as 59 µM and the IC50 (m-calpain [2]) is reported as 3.2 µM. It also gave an IC50 (cathepsin B) of 0.31 µM.

Compound `CC(C)C[C@H](NC(=O)COc1cccc2ccccc12)C(=O)N[C@@H](Cc1ccccc1)C(=O)CSCc1ccco1` [170 (No. 364), (s)-1-furfurylthio-3-[(s)-4-methyl-2-(1-naphtoxyacetylamino)valerylamino]-4-phenyl-2-butanone] has an IC50 (cathepsin L) of 8.6 µM, an IC50 (papain; Table 3, read-out: IC50 papain) of 9.2 µM and an IC50 (m-calpain [2]) of 19 µM. It also gave an IC50 (cathepsin B) of 6.5 µM.

Compound `CCCC[C@H](NC(=O)[C@H](CC(C)C)NC(=O)c1cc2ccccc2o1)C(=O)CSCc1ccco1` [91 (No. 180), (s)-3-[(s)-2-(2-benzofuranylcarbonylamino)-4-methylvalerylamino]-1-furfurylthio-2-heptanone] has an IC50 (cathepsin L) of 0.069 µM, an IC50 (papain; Table 3, read-out: IC50 papain) of 0.16 µM and an IC50 (m-calpain [2]) of 14 µM. The IC50 (cathepsin B) was 0.05 µM.

`CC(C)C[C@H](NC(=O)OCc1ccccc1)C(=O)N[C@@H](CCC(=O)O)C(=O)CSCc1ccco1` [217 (No. 600), (s)-4-((s)-2-benzyloxycarbonylamino-4-methylvalerylamino)-6-furfurylthio-5-oxohexanoic Acid] gave an IC50 (cathepsin L) of 11 µM, an IC50 (papain; Table 3, read-out: IC50 papain) of 26 µM and an IC50 (m-calpain [2]) of 19 µM. It also gave an IC50 (cathepsin B) of 2.5 µM.

In the case of `CCCC[C@H](NC(=O)[C@H](CC(C)C)NC(=O)COc1ccccc1)C(=O)C[S+]([O-])Cc1ccco1` (stereo partly shown) [4 (No. 83), (s)-1-furfurylsulfinyl-3-((s)-4-methyl-2-phenoxyacetylaminovalerylamino)-2-heptanone], the IC50 (cathepsin L) is reported as 0.045 µM, the IC50 (papain) is reported as 0.21 µM and the IC50 (m-calpain [2]) is reported as 12 µM. It also gave an IC50 (cathepsin B) of 0.044 µM.
